# Data reported in patent US4966169A, “Process for manufacturing cigarettes” (priority 1988, dated 1990).
# Entries after “also recorded” stand apart in the source; their conditions may differ. Where two headings read alike, the source gives them in different places.
# Legend:
# [1] = cited from earlier work
# rats = details: cited from earlier work
# bronchial epithelium [2] = test: Examples 2 and 3: cyclohexanol vapor inhalation, whole-body autoradiography after [14C] NNN; format: in vivo, C57BL/6J mouse; details: inhaled 5 min
# Description: The mouse was kept in the closed beaker for about five minutes as the bottom of the beaker was maintained at 50° C. in a water bath. […] Handbook of Chemistry and Physics (1979) at D-203 to D-217.
# One hour later, the mouse was anesthetized lightly by ether and frozen by immersion in dry ice/hexane. […] Control experiments were conducted for comparison purposes and radioactivity was detected in the respiratory epithelium in the controls.
# Example 2 was duplicated, except that the mouse was kept in the closed beaker for five minutes as the bottom of the beaker was maintained at 26° C. in a water bath. […] After injection as in Example 2, the mouse was processed in the same manner as in Example 2.
# human exposure [3] = test: OSHA time weighted average (TWA) exposure limit; details: TWA 200 mg/m^3
# Excerpt: On the other hand, the quantity of alcohol transferred and inhaled by the smoker must be at a safe amount and less than the maximum volumetric concentrations permitted for each alcohol by any applicable government regulation, such as in the United States those of the U.S. Occupational Safety and Health Administration (OSHA) Time Weighted Average (TWA). Other helpful guidelines are published by the Flavoring Extract Manufacturers' Association (Generally Regarded As Safe list), and the Hunter Committee from Great Britain. If a substance has not been evaluated in the literature, the toxicity of that substance (alcohol) should be evaluated before use. Compounds or alcohols herein are analyzed individually and the toxicity of a mixture of compounds is assumed to be the toxicity of the most toxic individual substance in the compound. It is expected that 1-1000 micrograms (and more particularly approximately 800 micrograms) of the blocking alcohol(s) would be needed on the rag tobacco for a cigarette containing 400-1200 milligrams (and more particularly approximately 800 milligrams) of tobacco. Yet another way of defining the quantity of alcohol is its concentration in air, which should be about 0.1% to 0.001% (see Example 3, supra). […]
# human exposure [4] = details: cited from earlier work
# [5] = system: nitrosamines such as NNN and metabolites thereof in mammalian tissues; test: Inhibition of selective localization of nitrosamines (general statements); format: in vivo; details: qualitative statement
# rodents = details: cited from earlier work; for carcinogenicity: rat, in vivo
# tissue macromolecules = details: cited from earlier work; for metabolic activation: rats, hamsters and monkeys; for binding of metabolites to macromolecules: tracheobronchial and nasal mucosa, kidney, liver, sublingual and submaxillary glands, esophagus, melanin of the eye
# [6] = system: formation of nitrosamines on epithelial membranes; details: cited from earlier work
# bronchial epithelium [7] = test: Example 1: whole-body autoradiography, inhibition of localization of [14C] NNN radioactivity in bronchial epithelium; format: in vivo, C57BL/6J mice; details: for dose relation of reduction in photometric density: oral alcohols
# Description: (§1) One hour later, the mice were anesthetized lightly with ether and frozen by immersion in dry ice/hexane. Twenty u-thick whole-body sagittal sections of the frozen mice were taken onto Scotch tape and were then processed for whole-body autoradiography by known methods. See W. Waddell et al, Drug Fate and Metabolism: Methods and Techniques, E.R. Garrett and J. L. Hirtz, Eds. […] Photometric density in areas of the developed autoradiographs was measured with an ADG Instruments photometer and a photocell with an aperture of three mm lying on the easel of a photographic enlarger. The X-ray film was placed in the enlarger and raised to produce a magnification of thirty-five times on the easel.
# (§2) NNN. […] (Twenty minutes is the average time it takes for alcohols introduced by oral intubation into mice to reach the peak blood level.)
# (§3) The number within each bar thereof represents the dose in g/kg of that alcohol which was administered orally twenty minutes before the [^14 C] NNN was given intravenously. The mice were frozen one hour after receiving the [^14 C] NNN. The means for each mouse were from fifteen measurements on random areas of that site (five absorbancies on each of three autoradiographs) after setting blood in each on zero. The control value is the mean from six mice; the n-butanol at 1 g/kg is from two mice; the other means are from one mouse.
# [8] = system: periportal and central areas of the liver; details: oral intubation 20 min before [14C] NNN
# Description: as §1, §2, §3
# salivary duct epithelium = details: oral intubation 20 min before [14C] NNN
# Description: as §1, §2, §3
# nitrosamine localization = test: Examples 4 and 5: intraperitoneal imidazole, whole-body autoradiography after [14C] NNN; format: in vivo, C57BL/6J mouse
# Description: An adult male C57BL/6J mouse was injected intraperitoneally with 0.02 ml/g body weight of a solution of imidazole in water. The imidazole solution concentration was such that 0.05 g of imidazole was delivered per kg of body weight. […] See Example 1.
# Example 4 was duplicated except that the adult mouse was injected intraperitoneally with 0.02 ml/g body weight of a solution of imidazole in water, wherein the solution concentration was such that 0.25 g of imidazole was delivered per kg of body weight.
# adult human = details: cited from earlier work
# tumor development = details: cited from earlier work
molecule,measurement,setting,value
"CC(O)CCO (stereo not drawn) [1,3 Butanediol]",Vapor Pressure,[1]; 20° C.,.06 mmHg
CCC(CC)CO [2-Ethyl butyl alcohol],Vapor Pressure,[1]; 20° C.,0.9 mmHg
CC(C)CC(C)O (stereo not drawn) [4-methyl-2-pentanol],Acute Oral LD50,"rats; rats, oral",2600 mg/kg
CCCCCCC(C)O (stereo not drawn) [Capryl alcohol],Vapor Pressure,[1]; 32.8° C.,1 mmHg
CCCCCCCCCCCCCCCCO [Cetyl alcohol],Acute Oral LD50,"rats; rats, oral",20000 mg/kg
same,Vapor Pressure,[1]; 122.7° C.,1 mmHg
OCC=Cc1ccccc1 [Cinnamyl alcohol],Vapor Pressure,[1]; 72.6° C.,1 mmHg
OC1CCCCC1 [Cyclohexanol],radioactivity in bronchial epithelium,"bronchial epithelium [2]; 26° C., 0.001% in air",No radioactivity was detected
same,radioactivity in bronchial epithelium,"bronchial epithelium [2]; 50° C., 0.01% in air",No radioactivity was detected
same,concentration in cigarette smoke at TWA limit of OSHA,human exposure [3],63 micrograms/cigarette
same,Toxicity (TWA OSHA),"human exposure [4]; 8 h work day, 40 h work week",200 mg/m^3
same,atmosphere concentration considered safe by OSHA,human exposure [4]; eight continuous hours,two hundred
same,Acute Oral LD50,"rats; rats, oral",2060 mg/kg
same,Vapor Pressure,[1]; 21° C.,1 mmHg
CCCCCCCCCCCCO [Lauryl alcohol],Vapor Pressure,[1]; 91° C.,1 mmHg
"CC1CCC(C(C)C)C(O)C1 (stereo not drawn) [Menthol, reference compound]",inhibition of nitrosamine localization,[5],does not have the nitrosamine blocking effect; also recorded: does not inhibit nitrosamine localization
same,Acute Oral LD50,"rats; rat, in vivo, po",3180 mg/kg
same,Vapor Pressure,[1]; 56° C.,1 mmHg
"CN(CCCC(=O)c1cccnc1)N=O [NNK, 4(methylnitrosamino)-1-(3-pyridyl)-1-butanone]",carcinogenicity,rodents,powerful environmental carcinogens
same,metabolic activation,tissue macromolecules,most likely starts with a-carbon hydroxylation
same,binding of metabolites to macromolecules,tissue macromolecules,bind to macromolecules
"O=NN1CCCC1c1cccnc1 (stereo not drawn) [NNN, Nnitrosonornicotine]",tumor induction,"rodents; F-344 rats, drinking water",esophageal tumors have been induced
same,sites of tumor formation,"rodents; nasal cavity, salivary duct, esophagus, bronchial epithelium and liver",induces tumor formation at five sites
same,carcinogenicity,rodents,powerful environmental carcinogens
same,carcinogenesis,"rodents; rodents, olfactory epithelium, lung, salivary glands","induce carcinogenesis in the olfactory epithelium, lung, salivary glands"
same,metabolism,tissue macromolecules; F-344 rat esophagus vs other tissues,preferentially catalyzes hydroxylation at the a-carbon of NNN adjacent to the pyridine ring
same,metabolic activation,tissue macromolecules,most likely starts with a-carbon hydroxylation
same,binding of metabolites to macromolecules,tissue macromolecules,bind to macromolecules
same,retention of radioactivity vs sites of tumor formation,"tissue macromolecules; whole-body autoradiography, adult male C57BL/6J mice, [14C] NNN",striking correlation
CC(C)(O)C(C)(C)O [Pinacol],Vapor Pressure,[1]; 44° C.,1 mmHg
CCCCCCCCCCCCCCCCCCO [Stearyl alcohol],Vapor Pressure,[1]; 50° C.,1 mmHg
O=C1O[C@H]([C@@H](O)CO)C(O)=C1O [Vitamin C],formation of nitrosamines on epithelial membranes,[6],prevent the formation of nitrosamines
S=C=NCc1ccccc1 [benzylisothiocyanate],inhibition of nitrosamine localization,[5],found to delocalize nitrosamines
"C[S+](C)[O-] [dimethylsulfoxide (DMSO), dimethylsulfoxide]",inhibition of nitrosamine localization,[5],found to delocalize nitrosamines
CCO [ethanol],dose relation of reduction in photometric density,bronchial epithelium [7],dose related
same,reduction of localization of radioactivity in bronchial epithelium,"bronchial epithelium [7]; oral intubation 20 min before [14C] NNN, ethanol 1 and 5 g/kg, butanols 0.2 and 1 g/kg",reduced
same,reduction of localization of radioactivity in periportal and central areas of the liver,[8],reduced
same,reduction of localization of radioactivity in salivary duct epithelium,salivary duct epithelium,reduced
same,Acute Oral LD50,"rats; rats, oral",14000 mg/kg
c1c[nH]cn1 [imidazole],nitrosamine delocalization relative to control mouse,"nitrosamine localization; 0.05 g/kg intraperitoneal, 20 min before [14C] NNN",Significant nitrosamine delocalization
same,nitrosamine delocalization relative to control mouse,nitrosamine localization; 0.25 g/kg intraperitoneal,significant delocalization of nitrosamine
same,inhibition of nitrosamine localization,[5],found to delocalize nitrosamines
CCCCCCCCCCO [n-Decyl alcohol],Vapor Pressure,[1]; 69.5° C.,1 mmHg
CCCCCCCCCO [n-Nonyl alcohol],Vapor Pressure,[1]; 59.5° C.,1 mmHg
"CCCCCO [n-amyl, n-amyl alcohol]",Acute Oral LD50,"rats; rat, in vivo, po",3030 mg/kg
CCCCO [n-butanol],dose relation of reduction in photometric density,bronchial epithelium [7],dose related
same,Acute Oral LD50,"rats; rats, oral",790 mg/kg
CN1CCCC1c1cccnc1 (stereo not drawn) [nicotine],estimated acutely fatal oral dose,adult human,one
c1cn[nH]c1 [pyrazole],inhibition of nitrosamine localization,[5],found to delocalize nitrosamines
"CC1=C(/C=C/C(C)=C/C=C/C(C)=C/CO)C(C)(C)CCC1 [retinol, reference compound]",Acute Oral LD50,"rats; rat, in vivo, po",2000 mg/kg
CC(C)(C)O [t-butanol],localization of [14C] NNN in bronchial epithelium,"bronchial epithelium [7]; at the high dosage (1 g/kg), oral",almost completely abolished
same,inhibition ranking in bronchial epithelium (FIG. 1),"bronchial epithelium [7]; comparison of ethanol, n-butanol, t-butanol",greatest inhibition
same,dose relation of reduction in photometric density,bronchial epithelium [7],dose related
Dipropylene glycol monomethyl,Vapor Pressure,[1]; 20° C.,.3 mmHg
Methyl cyclohexanol,Vapor Pressure,[1]; 30° C.,1.5 mmHg
Vitamin A,tumor development,tumor development,inhibit tumor development
Vitamin E,formation of nitrosamines on epithelial membranes,[6],prevent the formation of nitrosamines
